Measurements as given in patent publication US20200384134A1, “IMAGING METHOD OF AMPA RECEPTORS IN BRAIN OF PRIMATE ORGANISM, PROGRAM, DIAGNOSTIC AGENT, COMPANION DIAGNOSTIC AGENT, DRUG, SCREENING METHOD, INPUT TERMINAL, SERVER AND SYSTEM” (Public University Corporation Yokohama City University, priority 2017, published 2020).

What was measured:
[1] = system: WKY rat which was the depression model rat; test: Forced swimming test using rat; assay type: in vivo; conditions: FIG. 10
Description: In a forced swimming test, AMPA receptor-binding compounds K-2 and K-4 were dissolved in 100% DMSO (Nacalai Tesque, Inc. Japan) so as to have a concentration of 2.1 mM, were diluted with saline immediately before being administered (15% DMSO, 320 μM) and were intravenously administered to the rat with an administered amount of 5 μl/weight (g) such that the administered amount fell within a range of 1 mg/kg to 1.5 mg/kg.
In all animal experiments, the deliberation and the approval of the animal experiment committee in Yokohama City University were received (approval number: F-A-15-051). As rats, adult male Wistar rats which were 6 to 10 weeks old and Wistar Kyoto rats (WKY rats) which were depression model rats (Charles River, Japan) were used. In order to acquire a route for the repeated administration of K-2, a jugular vein cannula indwelling surgery was performed a week before the experiment. The rat was made to fall sleep with isoflurane (DS Pharma Animal Health, Japan), and thereafter, while anesthesia was maintained at an isoflurane concentration of 1.5% (air 2 L/minute), the jugular vein cannula indwelling surgery was performed. The skin of a neck was incised about 3 cm such that subcutaneous fat was opened, and thus a jugular vein was exposed. […]

AMPA receptors = test: AMPA receptor binding test (electrophysiological verification) in vitro; assay type: cell-based; conditions: FIG. 5
[2] = system: AMPA receptors in the brain; test: PET imaging in humans (healthy persons); assay type: in vivo, human; conditions: about 370 MBq i.v.
Description: PET imaging was performed on two human subjects. […] Absorption correction CT imaging was performed for about one minute, and then [^11C] K-2 of about 370 MBq was administered, as a PET drug, intravenously over one minute. Thereafter, imaging was performed for 120 minutes. For the imaging, a PET/CT device “Aquiduo” (Toshiba Medical Systems Corporation) was used. In list data which was collected, dynamic images were reconstructed by an OS-EM method.
The reconstructed image was analyzed with the PMOD image analysis software (PMOD technologies) by integrating VOIs including a plurality of regions of frontal lobe, dentate cortex, hippocampus, amygdala, putamen, cerebellum, bridge and the like with one formed on a template MRI image. […]
The reconstructed image was analyzed with the PMOD image analysis software (PMOD technologies) by integrating VOIs including a plurality of regions of frontal lobe, dentate cortex, hippocampus, amygdala, putamen, cerebellum, bridge and the like with one formed on a template MRI image. As a calculation value used in quantitative determination, % SUV (% of standardized uptake value) was used. […]

## CN(C)C(=O)COc1c(F)cc(SCCN(C)S(=O)(=O)c2ccccc2)cc1F [Compound K-4, {4-[2-(benzenesulfonyl-methyl-amino)-ethylsulfanil]-2,6-difluoro-phenoxy}-N,N-dimethyl-acetamide]
[1]; chronic administration, 1 mg/kg
  immobile time, K-4 compared with K-2: significantly lowers the immobile time instead of K-2
[1]; i.v. for 7 days, 1 mg/kg to 1.5 mg/kg, compared with 15% DMSO
  immobile time, chronic administration experiment: significantly lowered
AMPA receptors
  binding affinity to the AMPA receptors: indicated binding affinity

## [11CH3]N(CCSc1cc(F)c(OCC(N)=O)c(F)c1)S(=O)(=O)c1ccccc1 [[^11C] K-2, [4-[2-(benzenesulfonyl-[^11C]methyl-amino)-ethylsulfanyl]-2,6-difluorophenoxy]-acetamide]
[2]; between 30 and 60 minutes after administration, two human subjects
  nonspecific accumulation caused by PET drug not bound to the AMPA receptors in the brain: remarkably washed out
[2]; healthy men, average 50 to 120 minutes, FIG. 12
  uptake into the brain: high
